Measured values from patent US10280139B2, “Cytotoxic peptides and conjugates thereof” (priority 2014, dated 2019).

Columns and labels:
Test in all cases: In vitro cell killing assay of compounds of Formula (I), Cell-Titer-Glo
Type in all cases: cell-based
CMK11-5 cells = conditions: Homo sapiens, CMK-11-5, 120 h; free compound, five days incubation
Procedure: (§1) For evaluation of the cell killing potency of the compounds of Formula (I) in vitro, cell proliferation assays were performed in parallel with 8 cell lines: MDA-MB231 clone 16, clone 40, JimT1, HCC1954, NCl-H526, KU812, CMK11-5 cells and Jurkat cells. […] The cell proliferation assays were conducted with Cell-Titer-Glo™ (Promega) five days after cells were incubated with various concentrations of the compound (Riss et al., (2004) Assay Drug Dev Technol. 2:51-62).

HCC1954 = conditions: Homo sapiens, HCC1954, 120 h; free compound, five days incubation
Procedure: as §1

JimT1 = conditions: Homo sapiens, JIMT-1, 120 h; free compound, five days incubation
Procedure: as §1

Jurkat cells = conditions: Homo sapiens, 120 h, free compound, five days incubation
Procedure: as §1

KU812 = conditions: Homo sapiens, KU812, 120 h; free compound, five days incubation
Procedure: as §1

MDA-MB231 clone 16 = conditions: Homo sapiens, MDA-MB-231, 120 h; free compound, five days incubation
Procedure: as §1

MDA-MB231 clone 40 = conditions: Homo sapiens, MDA-MB-231, 120 h; free compound, five days incubation
Procedure: as §1

NCI-H526 = conditions: Homo sapiens, NCI-H526, 120 h; free compound, five days incubation
Procedure: as §1

| SMILES | IC50 (CMK11-5 cells) | IC50 (HCC1954) | IC50 (JimT1) | IC50 (Jurkat cells) | IC50 (KU812) | IC50 (MDA-MB231 clone 16) | IC50 (MDA-MB231 clone 40) | IC50 (NCI-H526) |
| --- | --- | --- | --- | --- | --- | --- | --- | --- |
| CC[C@H](C)[C@@H]([C@@H](CC(=O)N1CCC[C@H]1[C@H](OC)[C@@H](C)C(=O)N[C@@H](Cc1ccccc1)C(=O)NS(=O)(=O)CCCN=[N+]=[N-])OC)N(C)C(=O)[C@@H](N=C(N(C)C)N(C)C)C(C)C [FP-3, (S)-2-((bis(dimethylamino)methylene)amino)-1-(((3R,4S,5S)-1-((S)-2-((1R,2R)-3-(((S)-N-1-(3-azidopropylsulfonamido)-1-oxo-3-phenylpropan-2-yl)amino)-1-methoxy-2-methyl-3-oxopropyl)pyrrolidin-1-yl)-3-methoxy-5-methyl-1-oxoheptan-4-yl)(methyl)amino)-3-methyl-1-oxobutane] | 14.7 nM | 10.8 nM | 42.1 nM | 3.01 nM | 6.78 nM | 12.7 nM | 23.9 nM | 22 nM |
| CC[C@H](C)[C@@H]([C@@H](CC(=O)N1CCC[C@H]1[C@H](OC)[C@@H](C)C(=O)N[C@@H](Cc1ccccc1)C(=O)OC)OC)N(C)C(=O)[C@@H](NC(=O)N(C(C)C)C(C)C)C(C)C [FP-5, (S)-methyl-2-((2R,3R)-3-((S)-1-((3R,4S,5S)-4-((S)-2-(3,3-diisopropylureido)-N,3-dimethylbutanamido)-3-methoxy-5-methylheptanoyl)pyrrolidin-2-yl)-3-methoxy-2-methylpropanamido)-3-phenylpropanoate] | 74.8 nM | 47 nM | 44.7 nM | 49.9 nM | 106 nM | 83.5 nM | 139 nM | 204 nM |
| CC[C@H](C)[C@@H]([C@@H](CC(=O)N1CCC[C@H]1[C@H](OC)[C@@H](C)C(=O)N[C@@H](Cc1ccccc1)C(=O)O)OC)N(C)C(=O)[C@@H](/N=C(\N(C)C)N(C)CCN(C)C(=O)CCCCCN1C(=O)C=CC1=O)C(C)C [NL-9, (S)-2-((2R,3R)-3-((S)-1-((3R,4S,7S,E)-4-((S)-sec-butyl)-9-(dimethylamino)-19-(2,5-dioxo-2,5-dihydro-1H-pyrrol-1-yl)-7-isopropyl-3-methoxy-5,10,13-trimethyl-6,14-dioxo-5,8,10,13-tetraazanonadec-8-en-1-oyl)pyrrolidin-2-yl)-3-methoxy-2-methylpropanamido)-3-phenylpropanoic acid] | 10.4 nM | 2.3 nM | 14.2 nM | 6.1 nM | 8.4 nM | 8.1 nM | 11.7 nM | 29.5 nM |
